# Measured values published in the NIST ThermoML archive (doi:10.1016/j.jct.2012.01.003).
# Numbers after ± are expanded uncertainties.
# Legend:
# [1] = refractive index (Na D-line) (dimensionless); settings: 298.2 K; 101.33 kPa; Liquid; Standard Abbe refractometry
# [2] = 298.2 K; 101.33 kPa; Liquid; Kyoto 210 Density Meter
refractive index [1],mass density [2] [kg/m3],Compound
1.4344 ± 0.0004,826.86 ± 0.24,CCCCCCCCCCO [decan-1-ol]
1.4224 ± 0.0004,818.83 ± 0.24,CCCCCCCO [heptan-1-ol]
1.3324 ± 0.0004,,O [water]

# The next lines start with the molecule.
Compound,refractive index [1],mass density [2] [kg/m3]
CCC(C)O (stereo unspecified) [butan-2-ol],1.3949 ± 0.0004,802.34 ± 0.23
CCCCCCO [hexan-1-ol],1.4155 ± 0.0004,815.21 ± 0.24
CCCCCCCCO [octan-1-ol],1.427 ± 0.0004,825.1 ± 0.24
